Data: US4011138A, “Process for the preparation of cholesterol esterase” (Kyowa Hakko Kogyo Co., Ltd., priority 1974, dated 1977)
Blank lines part the entries; values can stand above or below the compound they belong to.

Columns and labels:
[1] = tested on: cholesterol esterase; experiment: Inhibitory effects of various substances on the enzyme activity; format: biochemical, Pseudomonas fluorescens
[2] = tested on: cholesterol esterase; experiment: Substrate specificity: relative activity of cholesterol esterase on cholesterol esters; format: biochemical, Pseudomonas fluorescens; conditions: activity on cholesterol linoleate defined as 100; 37° C, 30 minutes, pH 7.5
Description: The determination of the enzyme activity on cholesterol linoleate is carried out by the following method.
A mixture having the following composition is prepared and shaken at 37° C for 30 minutes. […]
During the above-described operation, the substrate cholesterol linoleate is hydrolyzed by the action of cholesterol esterase into cholesterol and linoleic acid, and subsequently the formed cholesterol is oxidized to cholestenone by the action of cholesterol oxidase. After 30 minutes of shaking, the mixture is immediately subjected to the determination of residual unreacted cholesterol linoleate by Zurkowsky's method [Clinical Chemistry 10, 451 (1964)]. Then, the amount of the reacted cholesterol linoleate is calculated. The enzyme activity is expressed by "unit." A "unit" of enzyme activity is defined as that amount of enzyme which will decompose 1 μmole of cholesterol linoleate in 1 minute under the above-described conditions. The enzyme activities on other cholesterol esters are variable depending upon the kind of substrates and are determined in the similar manner.

[3] = tested on: Pseudomonas fluorescens KY 3955 (FERM-P No. 2611) ATCC 31156; experiment: Cholesterol esterase activity of culture filtrates with fatty acids or fatty acid esters added to the fermentation medium; format: cell-based; conditions: additive at 5 g/l in soybean meal fermentation medium, 30° C for 24 hours; None = 20
[4] = 0.1 ml of 4 mM solution of the substance added, kept at 37° C for 15 minutes, substrate cholesterol linoleate, 37° C for 10 minutes, ratio of residual to initial cholesterol linoleate

Structure (SMILES): c1ccc(-c2ccccn2)nc1 [2,2'-Dipyridyl]
- Inhibition ratio (%) ([1]; cholesterol esterase, 4000 µM): 0%

Structure (SMILES): O=[N+]([O-])[O-].[Ag+] [AgNO3]
- activity of the enzyme inhibited by heavy metal ions [1]: inhibited
- Inhibition ratio (%) ([1]; cholesterol esterase, 4000 µM): 20%

Structure (SMILES): [Ba+2].[Cl-].[Cl-] [BaCl2]
- Inhibition ratio (%) ([1]; cholesterol esterase, 4000 µM): 0%

Structure (SMILES): [Ca+2].[Cl-].[Cl-] [CaCl2]
- Inhibition ratio (%) ([1]; cholesterol esterase, 4000 µM): 0%

Structure (SMILES): CC(=O)O[C@H]1CC[C@@]2(C)C(=CC[C@H]3[C@@H]4CC[C@H]([C@H](C)CCCC(C)C)[C@@]4(C)CC[C@@H]32)C1 [Cholesterol acetate]
- Relative activity [2]: 80

Structure (SMILES): CCCCC/C=C\C/C=C\CCCCCCCC(=O)O[C@H]1CC[C@@]2(C)C(=CC[C@H]3[C@@H]4CC[C@H]([C@H](C)CCCC(C)C)[C@@]4(C)CC[C@@H]32)C1 [Cholesterol linoleate]
- Relative activity [2]: 100

Structure (SMILES): CCCCCCCC/C=C\CCCCCCCC(=O)O[C@H]1CC[C@@]2(C)C(=CC[C@H]3[C@@H]4CC[C@H]([C@H](C)CCCC(C)C)[C@@]4(C)CC[C@@H]32)C1 [Cholesterol oleate]
- Relative activity [2]: 93

Structure (SMILES): CCCCCCCCCCCCCCCC(=O)O[C@H]1CC[C@@]2(C)C(=CC[C@H]3[C@@H]4CC[C@H]([C@H](C)CCCC(C)C)[C@@]4(C)CC[C@@H]32)C1 [Cholesterol palmitate]
- Relative activity [2]: 26

Structure (SMILES): CCCCCCCCCCCCCCCCCC(=O)O[C@H]1CC[C@@]2(C)C(=CC[C@H]3[C@@H]4CC[C@H]([C@H](C)CCCC(C)C)[C@@]4(C)CC[C@@H]32)C1 [Cholesterol stearate]
- Relative activity [2]: 58

Structure (SMILES): O=S(=O)([O-])[O-].[Cu+2] [CuSO4]
- activity of the enzyme inhibited by heavy metal ions [1]: inhibited
- Inhibition ratio (%) ([1]; cholesterol esterase, 4000 µM): 100%

- Inhibition ratio (%) [1, 4]: 0%
Structure (SMILES): O=C(O)CN(CCN(CC(=O)O)CC(=O)O)CC(=O)O [Ethylenediaminetetraacetic acid]

Structure (SMILES): O=S(=O)([O-])[O-].[Fe+2] [FeSO4]
- Inhibition ratio (%) ([1]; cholesterol esterase, 4000 µM): 0%

Structure (SMILES): [Cl][Hg][Cl] [HgCl2]
- activity of the enzyme inhibited by heavy metal ions [1]: inhibited
- Inhibition ratio (%) ([1]; cholesterol esterase, 4000 µM): 100%

Structure (SMILES): [Cl][Mn][Cl] [MnCl2]
- Inhibition ratio (%) ([1]; cholesterol esterase, 4000 µM): 0%

Structure (SMILES): [Cl-].[Cl-].[Zn+2] [ZnCl2]
- Inhibition ratio (%) ([1]; cholesterol esterase, 4000 µM): 0%

Structure (SMILES): CCCCC/C=C\C/C=C\CCCCCCCC(=O)O [linoleic acid]
- Activity (cholesterol esterase activity of culture filtrate) [3]: 310 unit/l

- Inhibition ratio (%) [1, 4]: 0%
Structure (SMILES): c1cnc2c(c1)ccc1cccnc12 [o-Phenanthroline]

Structure (SMILES): CCCCCCCC/C=C\CCCCCCCC(=O)O [oleic acid]
- Activity (cholesterol esterase activity of culture filtrate) [3]: 170 unit/l

Structure (SMILES): O=C(O)c1cc[c]([Hg][Cl])cc1 [p-Chloromercuri benzoic acid (p-CMB), p-Chloromercuri benzoic acid]
- Inhibition ratio (%) ([1]; cholesterol esterase, 4000 µM): 0%

Structure (SMILES): CCCCCCCCCCCCCCCCCC(=O)O [stearic acid]
- Activity (cholesterol esterase activity of culture filtrate) [3]: 230 unit/l

Structure (SMILES): CCCCC/C=C\C/C=C\CCCCCCCC(=O)OCC(COC(=O)CCCCCCC/C=C\C/C=C\CCCCC)OC(=O)CCCCCCC/C=C\C/C=C\CCCCC [trilinolein]
- Activity (cholesterol esterase activity of culture filtrate) [3]: 250 unit/l

Structure (SMILES): CCCCCCCC/C=C\CCCCCCCC(=O)OCC(COC(=O)CCCCCCC/C=C\CCCCCCCC)OC(=O)CCCCCCC/C=C\CCCCCCCC [triolein]
- Activity (cholesterol esterase activity of culture filtrate) [3]: 200 unit/l
